Results as given in patent US20240279214A1, “ALPHA4 BETA7 INEGRIN ANTAGONISTS AND USES THEREOF” (XinThera, Inc., priority 2022, published 2024).

What follows are molecules tested against T1, a4b7 integrin interaction with MadCAM-1 (Homo sapiens, UniProt P13612+P26010) (assay: a4b7 Cell Capture Assay (RPMI8866 cells on MAdCAM-1 Fc coated plates)). Details: 50% human serum, 1 mM MgCl2, 1 hour incubation, CellTiter-Glo luminescence, read-out: a4B7 cell capture assay RMPI8866-MadCAM EC50.
T1 construct: capture of a4b7 integrin expressing cells, RPMI8866; endogenous in cells; host or cells: RPMI8866
T1 sequence (P13612 34-1032): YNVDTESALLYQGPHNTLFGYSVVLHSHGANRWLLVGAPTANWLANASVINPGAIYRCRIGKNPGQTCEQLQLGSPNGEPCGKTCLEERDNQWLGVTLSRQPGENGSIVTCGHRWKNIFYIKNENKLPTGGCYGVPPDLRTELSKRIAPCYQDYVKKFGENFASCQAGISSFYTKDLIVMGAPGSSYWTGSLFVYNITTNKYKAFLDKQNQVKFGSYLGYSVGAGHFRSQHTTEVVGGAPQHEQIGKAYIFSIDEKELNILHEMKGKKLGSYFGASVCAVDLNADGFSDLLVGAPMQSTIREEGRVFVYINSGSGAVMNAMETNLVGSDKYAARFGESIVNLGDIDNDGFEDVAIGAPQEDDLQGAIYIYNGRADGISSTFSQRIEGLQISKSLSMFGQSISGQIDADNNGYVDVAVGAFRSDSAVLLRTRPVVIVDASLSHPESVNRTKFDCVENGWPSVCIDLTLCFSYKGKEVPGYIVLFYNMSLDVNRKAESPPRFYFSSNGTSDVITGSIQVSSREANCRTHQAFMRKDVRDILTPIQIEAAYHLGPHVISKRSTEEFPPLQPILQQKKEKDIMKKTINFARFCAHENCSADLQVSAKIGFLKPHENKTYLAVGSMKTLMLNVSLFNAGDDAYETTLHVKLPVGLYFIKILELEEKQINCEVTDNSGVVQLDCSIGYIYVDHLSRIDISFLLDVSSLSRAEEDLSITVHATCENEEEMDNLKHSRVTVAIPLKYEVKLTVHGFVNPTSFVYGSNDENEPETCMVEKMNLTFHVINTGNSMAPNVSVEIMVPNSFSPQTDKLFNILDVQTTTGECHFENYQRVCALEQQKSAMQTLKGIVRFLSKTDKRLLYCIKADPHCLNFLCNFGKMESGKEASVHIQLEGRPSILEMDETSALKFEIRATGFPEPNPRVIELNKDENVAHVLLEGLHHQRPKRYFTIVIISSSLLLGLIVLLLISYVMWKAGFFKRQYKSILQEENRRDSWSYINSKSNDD
T1 sequence (P26010 20-798): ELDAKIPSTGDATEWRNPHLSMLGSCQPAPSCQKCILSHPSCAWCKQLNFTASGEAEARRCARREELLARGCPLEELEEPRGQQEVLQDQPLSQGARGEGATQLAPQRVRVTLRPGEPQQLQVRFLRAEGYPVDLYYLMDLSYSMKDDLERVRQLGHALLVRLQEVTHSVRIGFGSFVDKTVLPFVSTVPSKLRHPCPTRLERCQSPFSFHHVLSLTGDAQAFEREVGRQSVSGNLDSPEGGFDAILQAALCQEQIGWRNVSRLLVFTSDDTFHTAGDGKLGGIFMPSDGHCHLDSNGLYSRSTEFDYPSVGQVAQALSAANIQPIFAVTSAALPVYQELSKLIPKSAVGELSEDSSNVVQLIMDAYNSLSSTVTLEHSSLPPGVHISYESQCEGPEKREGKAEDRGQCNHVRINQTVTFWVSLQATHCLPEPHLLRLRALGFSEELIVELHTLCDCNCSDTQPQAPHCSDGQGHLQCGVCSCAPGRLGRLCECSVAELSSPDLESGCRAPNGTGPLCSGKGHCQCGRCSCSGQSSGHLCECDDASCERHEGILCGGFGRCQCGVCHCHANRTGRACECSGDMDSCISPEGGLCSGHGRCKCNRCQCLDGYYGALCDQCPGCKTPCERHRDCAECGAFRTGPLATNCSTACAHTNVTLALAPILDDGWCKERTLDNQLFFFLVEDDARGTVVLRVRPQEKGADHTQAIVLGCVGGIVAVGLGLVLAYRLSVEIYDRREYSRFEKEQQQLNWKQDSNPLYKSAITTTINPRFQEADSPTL
Format: cell-based
In short: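 RPMI8866 cells (1.0×10^6 cells/mL) in 1 mM MgCl2, 25 mM HEPES, 50% human serum were added to plates coated with human MAdCAM-1–IgG1 Fc (1.0 μg/mL) and exposed to compound (9-point, 0.08–1000 nM, 0.1% DMSO) for 1 h at 37 °C. Bound cells were read by CellTiter-Glo luminescence. IC50 came from 4-parameter fit of normalized % inhibition.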

Compound | EC50 [nM]
Cc1cccc2c1-c1cc(c(F)c(C(F)(F)F)c1)[C@H](CC(=O)O)NC(=O)[C@@H](n1cc(CCN3CC(F)C3)c(C(F)(F)F)cc1=O)c1cc(Cl)cc(c1)O2 (relative stereo) [Example 15, [(14R*,17S)-11-chloro-19-fluoro-14-{5-[2-(3-fluoroazetidin-1-yl)ethyl]-2-oxo-4-(trifluoromethyl)pyridin-1-yl}-3-methyl-15-oxo-20-(trifluoromethyl)-8-oxa-16-azatetracyclo[16.3.1.1^{9,13}.0^{2,7}]tricosa-1(22),2(7),3,5,9,11,13(23),18,20-nonaen-17-yl]acetic acid] | 28
Cc1cc(C)c2c(c1)Oc1cccc(c1)[C@H](n1cc(CCCN(C)C)c(C(F)(F)F)cc1=O)C(=O)N[C@@H](CC(=O)O)c1cn-2nc1C(F)(F)F (relative stereo) [Example 18, [(13S,16R*)-16-{5-[3-(dimethylamino)propyl]-2-oxo-4-(trifluoromethyl)pyridin-1-yl}-5,7-dimethyl-15-oxo-11-(trifluoromethyl)-2-oxa-9,10,14-triazatetracyclo[15.3.1.1^{9,12}.0^{3,8}]docosa-1(20),3(8),4,6,10,12(22),17(21),18-octaen-13-yl]acetic acid] | 9.2
Cc1cc(Cl)cc2c1-c1cc(c(F)c(C(F)(F)F)c1)[C@H](CC(=O)O)NC(=O)[C@@H](n1cc(CCN3CC(F)C3)c(C(F)(F)F)cc1=O)c1cccc(c1)O2 (single isomer, unassigned) [Example 11] | 340
Cc1cc2cc(c1F)[C@H](CC(=O)O)NC(=O)[C@@H](n1cc(CCN3CC(F)C3)c(C(F)(F)F)cc1=O)c1cc(Cl)cc(c1)Oc1cccc(C)c1-2 (single isomer, unassigned) [Example 3] | 12
Cc1cc2cc(c1F)[C@H](CC(=O)O)NC(=O)[C@@H](n1cc(CCN3CC(F)C3)c(C(F)(F)F)cc1=O)c1cc(ccc1F)Oc1cccc(C)c1-2 (relative stereo) [Example 7, [(14R*,17S)-12,19-difluoro-14-{5-[2-(3-fluoroazetidin-1-yl)ethyl]-2-oxo-4-(trifluoromethyl)pyridin-1-yl}-3,20-dimethyl-15-oxo-8-oxa-16-azatetracyclo[16.3.1.1^{9,13}.0^{2,7}]tricosa-1(21),2(7),3,5,9(23),10,12,18(22),19-nonaen-17-yl]acetic acid] | 1.1
Cc1cc2cc(c1F)[C@H](CC(=O)O)NC(=O)[C@@H](n1cc(CCN3CC(F)C3)c(C(F)(F)F)cc1=O)c1cccc(c1)Oc1cccc(C)c1-2 (relative stereo) [Example 1, rel-2-((5S,8S)-1^4-fluoro-5-(5-(2-(3-fluoroazetidin-1-yl)ethyl)-2-oxo-4-(trifluoromethyl)pyridin-1(2H)-yl)-1^5,2^6-dimethyl-6-oxo-3-oxa-7-aza-1,4(1,3),2(1,2)-tribenzenacyclooctaphane-8-yl)acetic acid] | 59
Cc1cc(C2CC2)cc2c1-c1cc(c(F)c(C(F)(F)F)c1)[C@H](CC(=O)O)NC(=O)[C@@H](n1cc(CCN3CC(F)C3)c(C(F)(F)F)cc1=O)c1cccc(c1)O2 (relative stereo) [Example 10, [(14R*,17S)-5-cyclopropyl-19-fluoro-14-{5-[2-(3-fluoroazetidin-1-yl)ethyl]-2-oxo-4-(trifluoromethyl)pyridin-1-yl}-3-methyl-15-oxo-20-(trifluoromethyl)-8-oxa-16-azatetracyclo[16.3.1.1^{9,13}.0^{2,7}]tricosa-1(21),2(7),3,5,9,11,13(23),18(22),19-nonaen-17-yl]acetic acid] | 360
